Measured values reported in PMC4521150, “Discovery of Novel Inhibitors and Fluorescent Probe Targeting NAMPT” (Scientific Reports, 2015).

What was measured:
recombinant human NAMPT = biological target: T1, recombinant human NAMPT (Homo sapiens, UniProt P43490); experiment: HTS / fixed-concentration NAMPT activity screen (fluorometric); type: biochemical; settings: 20 μM compound; analogues of the 46 non-fluorescent inhibitors
T1 construct: His tag (N); made in house; host or cells: E. coli BL21-CodonPlus (DE3)-RIL, pET21a+ vector
Excerpt: Using our previously established high throughput screening (HTS) platform and recombinant human NAMPT[14][15], we performed a HTS on a chemical library containing 30000 small-molecules (Chemdiv, CA, USA). Our HTS targeting NAMPT was developed based on a fluorometric method for NAMPT activity assay by measuring the fluorescence of nicotinamide mononucleotide (NMN) derivative resulting from the NAMPT enzymatic product NMN through simple chemical reactions (Fig. 1A). The 30000 compounds were dissolved with dimethyl sulfoxide (DMSO); most of compounds were soluble at 10 mM stock solution (94.1%), some compounds insoluble at 10 mM were soluble at 2.5 mM stock solution (4.4%), and the remaining compounds insoluble at 2.5 mM (1.5%) were diluted further during HTS experiments (Fig. 1B). To guarantee the quality of screening, S/N ratio, CV and Z’ factors were monitored throughout the screenings, and all three indices met the requirements of HTS (Fig. 1C–E). After a primary screen and a secondary screen of all compounds at 20 μM, 242 compounds were selected as the hits of NAMPT inhibitors (NAMPT activity < 40%), and the hit rate was ~0.8% (Fig. 1F). […] All these 55 compounds were not reported as NAMPT inhibitors previously. Among the 55 compounds, we noted 46 compounds were non-fluorescent and 9 compounds were fluorescent (Fig. 1F). These fluorescent and non-fluorescent compounds were further studied separately.
HTS was performed using our previously reported method. 0.5 μl stock of each compound (1 mM DMSO stock) was transferred to a 96-well PCR plate for screening. In the primary screening, 5 ng NAMPT in 20 μl reaction buffer [0.4 mM phosphoribosylpyrophosphate (PRPP, Sigma), 2 mM ATP, 0.02% BSA, 2 mM DTT, 12 mM MgCl2 and 50 mM Tris-HCl (pH = 7.5)] was added into each well, the plate was incubated at 37 °C for 5 min, then 4.5 μl substrate of NAM was added to initiate the enzyme reaction, resulting in a final concentration of 2% DMSO, 2 μg/ml NAMPT, 0.2 μM NAM and 20 μM compound. After reacting at 37 °C for 15 min, the enzyme reaction was terminated by heating at 95 °C for 1 min and cooling in an ice bath. The product of NMN was detected through the following approach: after adding 10 μl 20% acetophenone in DMSO and 10 μl 2 M KOH into each well, the mixture was vortex-mixed and kept in ice bath for 2 min. Then 45 μl 88% formic acid was added and the mixture was incubated at 37 °C for 10 min. Finally, 85 μl mixtures in each well were transferred into a flat-bottom 96-well black plate (Greiner), and the fluorescence (F) was measured using a Tecan Infinity M200 plate reader (Tecan Group Ltd.) by setting the excitation and emission wavelength to 382 nm and 445 nm respectively. The last row of each 96-well plate includes six wells of background controls and six wells of reference controls. The relative enzyme activity (Activity%) regulated by specific compound was calculated according to equation (1):
F0 was the averaged fluorescence of six background controls, representing zero activity from a simulated enzyme reaction with only NAMPT but no NAM and compound; F100% was the averaged fluorescence of six reference controls, representing 100% activity from intact enzyme reaction without compound perturbation.
Compounds with Activity% less than 40% were considered as inhibitors and subjected to a secondary screen inhibition validation, in which another background control (FC0), a simulated enzyme reaction with NAMPT and compound but no NAM, was introduced to eliminate the direct and/or indirect influence from compound. At this stage, the Activity% was calculated according to equation (2): […]

[1] = test system: primary mouse hepatocytes; experiment: Cell viability of primary hepatocytes from normal mice; type: cell-based; settings: 30 μM
Experimental: Cell viability was determined by our previous method[27] using the Cell Counting Kit-8 (CCK-8, Dojindo, Japan). In human hepatocellular carcinoma cell line HepG2, cells were seeded in 96-well plate and starved for over 12 h with serum-free DMEM at 60~70% confluency, then treated with compounds or vehicle for 48 h. To determine the IC50 values of inhibitors, compounds with various concentrations were added into the 96-well plate. 10 μl CCK-8 solution was added to the culture medium and incubated at 37 °C for 1 h. The absorbance at 450 nm (A450) was detected by a plate reader. Each experiment was carried out in triplicate in three replicate wells. The IC50 values were determined by non-linear fitting of the concentration-dependent curves with the four-parameter IC50 logistic equation.
Hepatocytes were isolated from mouse liver by the two-step collagenase perfusion method. […] For imaging experiment, 1 × 10^5 cells were plated in a 35-mm glass bottom dishes or 5 × 10^4 were plated in 48-well plate for cell viability assay in DMEM supplemented with 10% FBS and antibiotics, and kept under an atmosphere of 95% air and 5% CO2 at 37 °C.

HepG2 NAD levels = experiment: Cellular NAD measurement (enzymatic cycling assay) in HepG2 cells; type: cell-based, human
Experimental: Cellular level of NAD was measured by spectrophotometric enzymatic cycling assay, as described previously. Briefly, cells were seeded in 96-well plate and starved for over 12 h with serum-free DMEM at 60~70% confluency, following by treatment with compounds or vehicle for 24 h. Cells were lysed with 50 μl of 1M HClO4 on ice for 30 min. The lysates were cleared by centrifuging at 4 °C at 18,000 × g for 5 min, and cleared lysates (40 μl) were neutralized by adding 1M K2CO3 (16 μl) and incubation on ice for 20 min. After centrifuging for 10 min, 10 μl of supernatant were mixed with reaction buffer [50 mM Tris-HCl (pH 7.5), 3% ethanol, 1.66 mM PES (phenazineethosulfate), 0.42 mM MTT (3-(4,5-dimethylthiazolyl-2)-2,5-diphenyltetrazolium bromide), 90 μg/ml ADH] in a total volume of 100 ul, and incubated at 37 °C for 40 min. The absorbance at 570 nm was determined. A blank measurement without ADH was also carried out. Each experiment was carried out in triplicate in three replicate wells

T1 sequence (P43490 whole entry): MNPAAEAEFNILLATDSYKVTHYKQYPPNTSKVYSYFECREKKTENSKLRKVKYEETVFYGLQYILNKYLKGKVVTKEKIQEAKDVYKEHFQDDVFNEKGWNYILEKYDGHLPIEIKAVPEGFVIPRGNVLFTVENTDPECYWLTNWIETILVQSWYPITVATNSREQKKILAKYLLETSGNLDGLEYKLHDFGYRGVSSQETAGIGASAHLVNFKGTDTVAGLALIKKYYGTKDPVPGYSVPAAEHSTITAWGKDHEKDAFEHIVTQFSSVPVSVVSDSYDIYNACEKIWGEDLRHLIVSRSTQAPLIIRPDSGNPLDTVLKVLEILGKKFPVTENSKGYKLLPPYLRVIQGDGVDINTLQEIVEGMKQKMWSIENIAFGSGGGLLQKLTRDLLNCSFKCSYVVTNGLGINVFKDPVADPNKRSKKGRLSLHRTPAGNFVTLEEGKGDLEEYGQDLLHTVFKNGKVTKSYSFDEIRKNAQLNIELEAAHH

CCCn1c(=O)c(-c2ccc(C(=O)NCc3cccnc3)cc2)nc2ccccc21 [M049-0244]
NAMPT inhibition activity at 20 μM (recombinant human NAMPT): Yes | Inhibition of normal hepatocytes viability [1]: ~ 20% | Decrease of cellular NAD level (HepG2 NAD levels; HepG2, 1 μM, 24 hours): ~ 80% | IC50 (HepG2 NAD levels; Homo sapiens, HepG2, 24 hours treatment, read-out: IC50 for reducing NAD level): 0.0176 µM
